pIC50: −log10 of the molar value.

In one experiment the target is PLK1 (Homo sapiens, UniProt P53350). Description: PLK1 activity (known assay). The experiment is classed as biochemical. On the procedure: (§1) The Wee1 pCDK1 and PLK1 activities were determined using known assays.
The target of a further experiment is Wee1 (Homo sapiens, UniProt P30291). The experiment can be described thus: Wee1 pCDK1 activity (known assay). The experiment is classed as cell-based. The method, then:
as §1

Chain of PLK1 (P53350 whole entry, species assumed): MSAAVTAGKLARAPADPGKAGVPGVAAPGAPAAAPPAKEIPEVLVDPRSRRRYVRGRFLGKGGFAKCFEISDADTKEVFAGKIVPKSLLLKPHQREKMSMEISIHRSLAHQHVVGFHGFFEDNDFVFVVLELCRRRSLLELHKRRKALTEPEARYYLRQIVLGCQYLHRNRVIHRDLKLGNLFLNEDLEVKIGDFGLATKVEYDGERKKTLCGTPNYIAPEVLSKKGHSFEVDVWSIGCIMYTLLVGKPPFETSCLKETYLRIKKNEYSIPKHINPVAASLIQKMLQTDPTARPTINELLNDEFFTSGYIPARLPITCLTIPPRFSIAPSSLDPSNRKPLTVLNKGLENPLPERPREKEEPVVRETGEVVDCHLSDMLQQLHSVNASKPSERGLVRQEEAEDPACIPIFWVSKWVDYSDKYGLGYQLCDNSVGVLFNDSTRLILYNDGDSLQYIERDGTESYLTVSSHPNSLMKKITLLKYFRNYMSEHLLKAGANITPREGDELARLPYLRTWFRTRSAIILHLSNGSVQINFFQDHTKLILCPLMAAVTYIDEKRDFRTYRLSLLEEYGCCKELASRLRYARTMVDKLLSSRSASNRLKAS
Chain of Wee1 (P30291 whole entry, species assumed): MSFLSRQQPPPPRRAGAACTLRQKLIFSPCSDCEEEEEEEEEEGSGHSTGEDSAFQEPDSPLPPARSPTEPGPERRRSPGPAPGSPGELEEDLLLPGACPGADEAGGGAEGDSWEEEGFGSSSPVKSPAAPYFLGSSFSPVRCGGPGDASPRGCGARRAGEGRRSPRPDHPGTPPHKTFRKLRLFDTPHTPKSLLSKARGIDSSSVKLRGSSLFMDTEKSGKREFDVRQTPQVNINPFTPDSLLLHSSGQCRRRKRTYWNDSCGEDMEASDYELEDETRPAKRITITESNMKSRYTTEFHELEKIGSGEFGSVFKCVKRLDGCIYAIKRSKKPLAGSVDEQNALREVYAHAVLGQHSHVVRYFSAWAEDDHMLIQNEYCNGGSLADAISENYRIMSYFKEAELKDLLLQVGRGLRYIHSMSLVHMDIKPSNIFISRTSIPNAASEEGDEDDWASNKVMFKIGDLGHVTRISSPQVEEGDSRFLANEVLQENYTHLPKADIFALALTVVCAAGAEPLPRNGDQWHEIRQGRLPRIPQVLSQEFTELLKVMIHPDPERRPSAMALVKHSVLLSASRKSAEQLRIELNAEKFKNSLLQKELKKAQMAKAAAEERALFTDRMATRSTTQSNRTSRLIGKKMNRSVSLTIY

On to `COCC1CN(C)CCN1c1ccc(Nc2ncc(C#N)c(Nc3cccc(N4CCCC4=O)n3)n2)cc1` (stereo not drawn) [Example 69, 2-[4-[2-(methoxymethyl)-4-methyl-piperazin-1-yl]anilino]-4-[[6-(2-oxopyrrolidin-1-yl)-2-pyridyl]amino]pyrimidine-5-carbonitrile], for which the results for the pIC50 on PLK1 and on Wee1 were less than 6.00 and 6.30 to 6.60, respectively.

`CN1CC2CC1CN2c1ccc(Nc2ncc(C#N)c(Nc3cccc(N4CCCC4=O)n3)n2)cc1` (stereo not drawn) [Example 70, 2-[4-(5-methyl-2,5-diazabicyclo[2.2.1]heptan-2-yl)anilino]-4-[[6-(2-oxopyrrolidin-1-yl)-2-pyridyl]amino]pyrimidine-5-carbonitrile]: the pIC50 (as a rule, the IC50 on a negative log10 scale, so that one unit is a factor of ten) at PLK1 was no less than 7.00; against Wee1, 6.30 to 6.60.

Turning to `CN1CCN(c2ccc(Nc3ncc(C#N)c(Nc4cccc(N5CCCC5=O)n4)n3)cc2)CC1=O` [Example 71, 2-[4-(4-methyl-3-oxo-piperazin-1-yl)anilino]-4-[[6-(2-oxopyrrolidin-1-yl)-2-pyridyl]amino]pyrimidine-5-carbonitrile], the pIC50 at PLK1 is 6.30 to 6.60; on Wee1 it was 6.00 to 6.30.

For `CN1CCc2cc(Nc3ncc(C#N)c(Nc4cccc(N5CCCC5=O)n4)n3)ccc2C1` [Example 72, 2-[(2-methyl-3,4-dihydro-1H-isoquinolin-6-yl)amino]-4-[[6-(2-oxopyrrolidin-1-yl)-2-pyridyl]amino]pyrimidine-5-carbonitrile], the results for the pIC50 against PLK1 and on Wee1 were less than 6.00 and no less than 7.00, respectively.

For `Cc1cc(Nc2ncc(C#N)c(Nc3cccc(N4CCCC4=O)n3)n2)cc2c1CN(C)CC2` [Example 73, 2-[(2,8-dimethyl-3,4-dihydro-1H-isoquinolin-6-yl)amino]-4-[[6-(2-oxopyrrolidin-1-yl)-2-pyridyl]amino]pyrimidine-5-carbonitrile], the pIC50 at PLK1 is less than 6.00; on Wee1 it was no less than 7.00.

Turning to `CN1CCc2ccc(Nc3ncc(C#N)c(Nc4cccc(N5CCCC5=O)n4)n3)cc2C1` [Example 74, 2-[(2-methyl-3,4-dihydro-1H-isoquinolin-7-yl)amino]-4-[[6-(2-oxopyrrolidin-1-yl)-2-pyridyl]amino]pyrimidine-5-carbonitrile], the negative-log IC50 (pIC50) is less than 6.00 against PLK1 and 6.60 to 7.00 on Wee1.

Regarding `Cc1cc(Nc2ncc(C#N)c(Nc3cccc(N4CCCC4=O)n3)n2)cc2c1CCN(C)C2` [Example 75, 2-[(2,5-dimethyl-3,4-dihydro-1H-isoquinolin-7-yl)amino]-4-[[6-(2-oxopyrrolidin-1-yl)-2-pyridyl]amino]pyrimidine-5-carbonitrile], the results for the pIC50 on PLK1 and against Wee1 were 6.60 to 7.00 and no less than 7.00, respectively.

Consider `CN1CCc2cc(Nc3ncc(C#N)c(Nc4cccc(N5CCCC5=O)n4)n3)cc(Cl)c2C1` [Example 76, 2-[(8-chloro-2-methyl-3,4-dihydro-1H-isoquinolin-6-yl)amino]-4-[[6-(2-oxopyrrolidin-1-yl)-2-pyridyl]amino]pyrimidine-5-carbonitrile], for which the pIC50 was less than 6.00 at PLK1 and 6.00 to 6.30 at Wee1.

With `CN1CCC(O)(c2ccc(Nc3ncc(C#N)c(Nc4cccc(N5CCCC5=O)n4)n3)cc2)CC1` [Example 78, 2-[4-(4-hydroxy-1-methyl-4-piperidyl)anilino]-4-[[6-(2-oxopyrrolidin-1-yl)-2-pyridyl]amino]pyrimidine-5-carbonitrile], the negative-log IC50 (pIC50) at PLK1 and against Wee1 was less than 6.00 throughout.

For the origin of these results see patent publication US20240228459A1 (Boundless Bio, Inc., priority 2022, published 2024).
